In PMC2375326, “In vitro evaluation of amino acid prodrugs of novel antitumour 2-(4-amino-3-methylphenyl)benzothiazoles” (British Journal of Cancer, 2002):

What was measured:
[1] = test system: CYP1A1 activity (EROD) in MCF-7 cells; experiment: Induction of EROD activity in lysates of treated MCF-7 cells; assay type: cell-based, human; conditions: lysates of MCF-7 cells treated with 1 μM, 24 h; negligible activity in untreated lysates; mean of three, s.d. <10%
Description: (§1) A sensitive and rapid fluorometric assay was used to measure EROD activity ([Burke et al, 1994]). Incubation mixtures (total 1 ml) consisted of 100 mM Tris-HCl (pH 7.4), 50 μM MgCl2, 100 μM 7-ethoxyresorufin and 100 μl cell homogenate. Homogenates were prepared following treatment of cells for 24 h with compounds 1, 2, 2a, 2b, 3, 3a, 3b, 4, 4a and 4b or vehicle alone and protein content determined (n=3). Thus induction of ethoxyresorufin O-deethylation by agents under study, catalysed by CYP1A1 activity, could be determined. Alternatively, microsomes expressing recombinant CYP1A1 (0.1 mg ml^−1) provided the enzyme source for EROD catalysis, in the presence or absence of drug, in order to determine inhibition of CYP1A1 activity by compounds 1, 2, 2a, 2b, 3, 3a, 3b, 4, 4a and 4b. Incubation mixtures were pre-incubated for 5 min at 37°C before initiation of reaction by addition of NADPH (500 μM). Following further incubations at 37°C (30 min for cell homogenates, 15 min for CYP1A1 microsomes), reactions were terminated by addition of 3 ml ice-cold acetonitrile. Reaction mixtures were centrifuged (1400 r.p.m., 10 min) before analyses of supernatants. Fluorescence was read on a Perkin-Elmer LS-5 luminescence spectrometer (excitation, 530 nm; emission 585 nm). Estimation of resorufin reaction product (pmoles mg^−1 protein, pmoles 100 μg^−1 microsomes), as a measure of CYP1A1 activity, was determined following performance of a resorufin standard curve.

[2] = target: T1, CYP1A1 (Homo sapiens, UniProt P04798); experiment: Inhibition of recombinant CYP1A1 microsomal EROD activity; assay type: biochemical; conditions: microsomes expressing recombinant CYP1A1, pH 7.4, probe 7-ethoxyresorufin (100 μM); 30 μM agent; incubates without drug = 100% activity; mean of three, s.d. <10%; read-out: Microsomal CYP1A1 EROD activity (% control)
T1 sequence (P04798 1-512): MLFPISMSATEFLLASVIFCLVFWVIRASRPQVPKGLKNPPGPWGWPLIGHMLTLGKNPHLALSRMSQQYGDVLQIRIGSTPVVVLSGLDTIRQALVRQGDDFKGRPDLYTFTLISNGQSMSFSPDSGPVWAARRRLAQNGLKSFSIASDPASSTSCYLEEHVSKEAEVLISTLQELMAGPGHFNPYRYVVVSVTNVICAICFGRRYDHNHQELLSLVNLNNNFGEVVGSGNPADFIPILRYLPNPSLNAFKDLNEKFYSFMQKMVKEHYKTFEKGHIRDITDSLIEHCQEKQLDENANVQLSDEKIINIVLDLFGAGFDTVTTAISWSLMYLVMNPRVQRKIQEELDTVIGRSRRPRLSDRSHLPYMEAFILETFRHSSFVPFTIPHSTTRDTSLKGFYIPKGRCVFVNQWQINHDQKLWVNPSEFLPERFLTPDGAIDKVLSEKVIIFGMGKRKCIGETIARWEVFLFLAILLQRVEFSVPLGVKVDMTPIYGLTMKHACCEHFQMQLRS
Description: as §1

[3] = test system: SR; experiment: NCI in vitro cytotoxicity assay (SRB), SR; assay type: cell-based; conditions: Homo sapiens, 48 h exposure, sulforhodamine B assay, mean graph, read-out: Log10 GI50 (SR) (converted)
Description: (§2) Cell culture and drug application procedures have been described previously ([Boyd and Paull, 1995]). Briefly, cell lines were inoculated into a series of 96-well microtiter plates, with varied seeding densities depending on growth characteristics of each cell line. Following a 24 h drug free incubation, test agents were added at five 10-fold dilutions with a maximum concentration of 100 μM. Cellular protein levels were determined after 48 h drug exposure by sulphorhodamine B colorimetry.

[4] = test system: HOP-92; experiment: NCI in vitro cytotoxicity assay (SRB), HOP-92; assay type: cell-based; conditions: Homo sapiens, 48 h exposure, sulforhodamine B assay, mean graph, read-out: Log10 GI50 (HOP-92) (converted)
Description: as §2

[5] = test system: NCI-H226; experiment: NCI in vitro cytotoxicity assay (SRB), NCI-H226; assay type: cell-based; conditions: Homo sapiens, 48 h exposure, sulforhodamine B assay, mean graph, read-out: Log10 GI50 (NCI-H226) (converted)
Description: as §2

[6] = test system: NCIH23; experiment: NCI in vitro cytotoxicity assay (SRB), NCIH23; assay type: cell-based; conditions: Homo sapiens, NCI-H23; 48 h exposure, sulforhodamine B assay, mean graph; read-out: Log10 GI50 (NCIH23) (converted)
Description: as §2

[7] = test system: SF-539; experiment: NCI in vitro cytotoxicity assay (SRB), SF-539; assay type: cell-based; conditions: Homo sapiens, 48 h exposure, sulforhodamine B assay, mean graph, read-out: Log10 GI50 (SF-539) (converted)
Description: as §2

[8] = test system: M14; experiment: NCI in vitro cytotoxicity assay (SRB), M14; assay type: cell-based; conditions: Homo sapiens, 48 h exposure, sulforhodamine B assay, mean graph, read-out: Log10 GI50 (M14) (converted)
Description: as §2

[9] = test system: SK-MEL-28; experiment: NCI in vitro cytotoxicity assay (SRB), SK-MEL-28; assay type: cell-based; conditions: Homo sapiens, 48 h exposure, sulforhodamine B assay, mean graph, read-out: Log10 GI50 (SK-MEL-28) (converted)
Description: as §2

[10] = test system: SK-MEL-5; experiment: NCI in vitro cytotoxicity assay (SRB), SK-MEL-5; assay type: cell-based; conditions: Homo sapiens, 48 h exposure, sulforhodamine B assay, mean graph, read-out: Log10 GI50 (SK-MEL-5) (converted)
Description: as §2

[11] = test system: UACC-257; experiment: NCI in vitro cytotoxicity assay (SRB), UACC-257; assay type: cell-based; conditions: Homo sapiens, 48 h exposure, sulforhodamine B assay, mean graph, read-out: Log10 GI50 (UACC-257) (converted)
Description: as §2

[12] = test system: SK-OV-3; experiment: NCI in vitro cytotoxicity assay (SRB), SK-OV-3; assay type: cell-based; conditions: Homo sapiens, 48 h exposure, sulforhodamine B assay, mean graph, read-out: Log10 GI50 (SK-OV-3) (converted)
Description: as §2

[13] = test system: ACHN; experiment: NCI in vitro cytotoxicity assay (SRB), ACHN; assay type: cell-based; conditions: Homo sapiens, 48 h exposure, sulforhodamine B assay, mean graph, read-out: Log10 GI50 (ACHN) (converted)
Description: as §2

[14] = test system: RXF 393; experiment: NCI in vitro cytotoxicity assay (SRB), RXF 393; assay type: cell-based; conditions: Homo sapiens, 48 h exposure, sulforhodamine B assay, mean graph, read-out: Log10 GI50 (RXF 393) (converted)
Description: as §2

[15] = test system: SN12C; experiment: NCI in vitro cytotoxicity assay (SRB), SN12C; assay type: cell-based; conditions: Homo sapiens, 48 h exposure, sulforhodamine B assay, mean graph, read-out: Log10 GI50 (SN12C) (converted)
Description: as §2

[16] = test system: BT-549; experiment: NCI in vitro cytotoxicity assay (SRB), BT-549; assay type: cell-based; conditions: Homo sapiens, 48 h exposure, sulforhodamine B assay, mean graph, read-out: Log10 GI50 (BT-549) (converted)
Description: as §2

Row | Compound | Induction EROD activity [1] | activity at 15 min, 30 μM [2] [%] | GI50 [3] [µM] | GI50 [4] [µM] | GI50 [5] [µM] | GI50 [6] [µM] | GI50 [7] [µM] | GI50 [8] [µM] | GI50 [9] [µM] | GI50 [10] [µM] | GI50 [11] [µM] | GI50 [12] [µM] | GI50 [13] [µM] | GI50 [14] [µM] | GI50 [15] [µM] | GI50 [16] [µM]
1 | Cc1cc(-c2nc3cc(F)ccc3s2)ccc1N [Compound 2, 2-(4-Amino-3-methylphenyl)-5-fluorobenzothiazole] | 36.64 nM resorufin mg^-1 protein | 30.4 | < 0.01 | 36.3 | < 0.01 | 51.3 | 27.5 | 33.9 | > 100 | > 100 | 77.6 | 83.2 | 30.2 | 32.4 | 74.1 | > 100
2 | Cc1cc(-c2nc3cc(F)ccc3s2)ccc1NC(=O)[C@@H](N)CCCCN [Compound 2b] | 35.56 nM resorufin mg^-1 protein | 38.5 | 0.562 | 15.1 | 0.155 | 6.17 | 14.1 | 2.14 | 22.4 | 15.5 | 15.8 | 16.2 | 6.03 | 7.24 | 12.3 | 14.1
